From patent US20080269259A1, “Regulation of Autophagy and Cell Survival” (THE TRUSTEES OF THE UNIVERSITY OF PENNSYLVANIA, priority 2005, published 2008)

What was measured:
[1] = tested on: Myc/p53ER^TAM/GFP-LC3 cells; assay: GFP-LC3 fluorescence imaging; type: cell-based, mice; conditions: hTAM 250 mM, CQ 5 pM as printed; 48 hours
Method: For GFP-LC3 fluorescence imaging, Myc/p53ER^TAM/IGFP-LC3 cells (see below) were exposed to the indicated treatments and fixed with 4% paraformaldehyde for 30 minutes at room temperature, washed three times and centrifuged onto slides. DAPI counterstain was used to identify cells with intact nuclei. All fluorescence imaging was performed and digitally captured at 100× magnification on a Nikon Eclipse E800 fluorescent microscope.

Bax^−/−Bak^−/− cells [2] = assay: ATP levels in growth factor-deprived cells; type: cell-based, mice; conditions: IL-3 deprived cells; for ATP levels: 8 hours after addition of drug
Method: The conversion of 5-^3H-glucose to ^3H2O was used to measure the glycolytic rate. The level of ATP was measured as described previously.

LC3 = LC3 immunofluorescence staining of autophagosomes; type: cell-based, mice; conditions: cells without IL-3 for 6 weeks, 18 hours of 5 mM 3-MA or 10 μM CQ
Method: Antibodies (all 1:1000 dilution) used were: GLUT1 (Research Diagnostic Inc.), calreticulin (StressGen), STAT3 (Cell Signalling), actin (Sigma), LC3 (gift from T. Yoshimori), ATG5 (gift from N. Mizushima), Bax (Santa Cruz) and Bak (Upstate Technologies). For immunofluorescence staining, cells were fixed in 4% paraformaldehyde and permeabilized with 0.1% Triton X-100, washed 3 times (PBS containing 0.01% Triton X-100 and 10% FBS), followed by incubation with […]. […] Images were captured using a Zeiss 510 confocal microscope. For surface analysis, cells were fixed in 4% paraformaldehyde, stained with 1:100 biotin-anti-IL-3 alpha chain receptor (BD Pharmingen) and a 1:100 dilution of streptavidin conjugated fluorescein isothiocyanate (BD Pharmingen) followed by FACS analysis.

Bax^−/−Bak^−/− cells [3] = assay: Viability of IL-3 dependent Bax−/−Bak−/− cells (propidium iodide exclusion); type: cell-based, mice; conditions: for effect on survival of cells grown in the presence of IL-3 / death of the cells in the cultures: 5 mM 3-MA or 10 μM CQ; for effect on survival of cells grown in the presence of IL-3: IL-3 present; for death of the cells in the cultures: by 48 hours, cells deprived of growth factor for 6 weeks
Method: Immortalized IL-3 dependent cells were obtained from the bone marrow of two independent Bax^−/−Bak^−/− mice using previously established protocols. Subsequent experiments using these cells were performed in complete media consisting of: RPMI 1640 medium (Invitrogen) supplemented with 10% heat inactivated fetal bovine serum (Gemini), 10 units/mL penicillin/streptomycin and 2 mM L-glutamine (Invitrogen), 50 μm β-mercaptoethanol (Sigma) and 10 mM HEPES (Invitrogen). For cells grown in the presence of IL-3, the complete medium was supplemented with 3.5 ng/mL of murine recombinant IL-3 (BD Pharmingen). For IL-3 withdrawal experiments, cells were washed three times in medium without IL-3 and serum. After the final wash, cells were resuspended in complete medium without IL-3. Medium for cells cultured in the absence of IL-3 was replaced with fresh complete medium without IL-3 every 10 days. […] Cell size and number was assessed by using a Coulter Z2 particle analyzer. For readdition experiments, cells grown in the absence of IL-3 at the indicated time points were pelleted by centrifugation and resuspended in complete media containing 3.5 ng/mL IL-3. The FL5.12 cell line was maintained in complete media supplemented with 0.35 ng/mL IL-3. For measurement of mitochondrial membrane potential, cells were incubated for 30 minutes with 50 nM of tetramethyl rhodamine ethyl ester (TMRE; Molecular Probes) in the presence or absence of 50 μM CCCP (Sigma). Viability was performed by incubating cells with annexin V conjugated fluorescein isothiocyanate (BD Pharmingen) in buffer containing 1 μg/mL propidium iodide (Molecular Probes) followed by FACS analysis. DNA fragmentation assay was performed as previously described.

[4] = Observed toxicity in treated tumor-bearing mice
Method: (§1) For tamoxifen (TAM) treatment, the hormone powder (Sigma, St. Louis) was dispersed, via sonication, in peanut oil (Sigma) at a concentration of 10 mg/mL. The administration of TAM was done via daily IP injections at the dose of 1 mg per mouse.
(§2) 4-hydroxytamoxifen (hTAM) (Sigma) was dissolved in ethanol. Cyclophosphamide (Sigma) was dissolved in PBS. Tumors were measured on a daily basis using calipers and tumor volume was calculated using the formula: (mm^3)=AxBx[A+B]/2

[5] = tested on: Myc/p53ER^TAM lymphoma cells; assay: In vitro growth of Myc/p53ER^TAM lymphoma cells (cell number); type: cell-based, mice; conditions: Mus musculus, 96 h; cell number measured on day 4, medium changed daily, single agent; read-out: IC50, impairment of lymphoma cell growth
Excerpt: For all in vitro experiments media+supplements and drugs treatments were changed daily.

Myc/p53ER^TAM lymphomas [6] = assay: Myc/p53ER^TAM lymphoma tumor growth, regression and recurrence in syngeneic mice; type: in vivo
Method: All experiments were performed in accordance with approved animal safety protocols. All experiments were carried out using 8-10 week old C57BL/6X129F1 mice obtained from The Jackson Laboratory (Bar Harbor, Me.). Bone marrow cell harvest and production of bone marrow-derived neoplasms followed the protocol previously described. After primary tumor formation, tumor cells were harvested in ice cold PBS by passage through a […] nylon mesh (BD Bioscience, Bedford, Md.) and expanded in vivo by subcutaneous injection into the flanks of syngeneic mice. For tissue analysis, all animals were sacrificed individually by CO2 asphyxiation and tissue was harvested immediately. Tumors were harvested in ice cold PBS. For each tumor, sections of visually viable tumor tissue were fixed in 10% formalin for preparation of paraffin-embedded sections, glutaraldehyde for electron microscopy (see below). Tumor cell lysates were achieved through manual agitation of remaining tumor tissue in RIPA buffer.
as §1, §2

Myc/p53ER^TAM lymphomas [7] = assay: Electron microscopy and quantification of autophagosomes in tumors; type: in vivo, mice; conditions: 24 hours after initiation of TAM/PBS compared to 48 hours of PBS alone; p<0.0005
Excerpt: Cells were postfixed with 2% osmium tetroxide followed by an increasing gradient dehydration step using ethanol and propylene oxide. […] Data is presented as mean ±SD.

cleaved caspase 3 = assay: Western blot of cleaved caspase 3 in tumor lysates; type: in vivo, mice; conditions: lysates obtained at 48 hours; data not shown
Excerpt: Cultured cells were lysed in RIPA buffer. Tumor lysates were obtained by manual agitation of tumor tissue and lysis in RIPA. Lysates were standardized for protein content and resolved by SDS-PAGE on 14% NuPAGE gels (Invitrogen, St Louis, Mo.). Nitrocellulose blots were probed with antibodies against cleaved caspase 3 (rabbit monoclonal antibody; […]) (Cell Signaling, Beverly, Mass.); anti-actin (mouse monoclonal antibody; 1:10,000) (Sigma, St. Louis, Mo.); anti-ATG5 (rabbit polyclonal antibody; 1:2000) (gift from N. Mizushima).

For 4-hydroxytamoxifen [hTAM], the “punctate GFP-LC3 fluorescence” value [1] was “increased number of punctate LC3 associated vesicles”.
With Cn1cnc(N)c2ncnc1-2 [3-MA, 3-methyladenine] the ATP levels (Bax^−/−Bak^−/− cells [2]) was “dramatic decline in ATP levels”, the “number of autophagosomes (LC3 redistribution from punctate to diffuse staining)” value (LC3) was “reduction in the number of autophagosomes” and the “effect on survival of cells grown in the presence of IL-3” value (Bax^−/−Bak^−/− cells [3]) was “no significant effect”. The “death of the cells in the cultures” value (Bax^−/−Bak^−/− cells [3]) was 72%.
In the case of CCN(CC)CCCC(C)Nc1ccnc2cc(Cl)ccc12 (centres unmarked) [CQ, chloroquine], the “additional toxicity in treated animals” value ([4]; CQ cotreatment with TAM or with cyclophosphamide) is reported as “did not result in additional toxicity”, the observed toxicity ([4]; daily IP 50 mg/kg/day or 60 mg/kg/day) is reported as “no observed toxicity” and the “tolerability of systemic administration” value ([4]; for up to 20 days) is reported as “well tolerated”. For the same compound, the ATP levels (Bax^−/−Bak^−/− cells [2]) was “dramatic decline in ATP levels”, the IC50 [5] was 3000 nM and the tumor regression (Myc/p53ER^TAM lymphomas [6]; CQ 50 or 60 mg/kg/day IP daily, single agent) was “not observed”. The “average time to tumor recurrence” value (Myc/p53ER^TAM lymphomas [6]; cyclophosphamide 50 mg/kg IP once followed by daily CQ 60 mg/kg/day IP for 13 days) was 12.5 ± 6.6 days, the “number of autophagosomes (LC3 redistribution from punctate to diffuse staining)” value (LC3) was “reduction in the number of autophagosomes” and the “effect on survival of cells grown in the presence of IL-3” value (Bax^−/−Bak^−/− cells [3]) was “no significant effect”. The “death of the cells in the cultures” value (Bax^−/−Bak^−/− cells [3]) was 82% and the “punctate GFP-LC3 fluorescence” value [1] was “Some punctate GFP-LC3 fluorescence”.
For CC/C(=C(\c1ccccc1)c1ccc(OCCN(C)C)cc1)c1ccccc1 [TAM/PBS, tamoxifen], the “increase of percentage of tumor cells with autophagosomes” value (Myc/p53ER^TAM lymphomas [7]) was 30 fold, the “mice with complete clinical regression of their tumor” value (Myc/p53ER^TAM lymphomas [6]; TAM/CQ and TAM/HCQ pooled in one figure, p<0.005) was 8% and the “cleaved caspase 3 in tumor lysates” value (cleaved caspase 3) was “absent”.
In the case of O=P1(N(CCCl)CCCl)NCCCO1 (centres unmarked) [cyclophosphamide], the “average time to tumor recurrence” value (Myc/p53ER^TAM lymphomas [6]; cyclophosphamide 50 mg/kg IP once followed by daily PBS) is reported as 5.25 ± 1.9 days and the tumor regression (Myc/p53ER^TAM lymphomas [6]; single dose cyclophosphamide 50 mg/kg IP with or without CQ) is reported as “complete tumor regression in all treated mice”.
With COC(=O)C(C)=O [methyl pyruvate] the “effect on ATP decline caused by 3-MA or CQ” value (Bax^−/−Bak^−/− cells [2]; 10 mM MP, 8 hours) was “could be suppressed” and the “effect on death observed in response to 3-MA and CQ” value (Bax^−/−Bak^−/− cells [3]; 10 mM methyl pyruvate added at the time of 3-MA or CQ treatment, IL-3 deprived 6 weeks) was “suppressed the death”.
